Source: patent US12590963B2, “Anti-cancer treatment of preselected subjects and screening methods to identify susceptible subjects” (TUDAG TU Dresden Aktiengesellschaft, priority 2018, dated 2026)

Tested on: U-87 cells
Experiment: Drug screening of FDA-approved compound library, cell viability by ATP levels (ATPLite)
Type: cell-based, human
Details: FGFJI medium
Method: A library of 1,600 FDA-approved compounds was screened on U-87 cells cultured in the improved conditions. Each drug was screened at both 3 micromolar and 10 micromolar concentrations. Cell viability was assessed by measuring ATP levels.
Drugs that opposed cell viability were further investigated. These drugs were re-screened under the more common cell culture conditions (in serum-supplemented RMPI medium, where cells are more differentiated). Some drugs were identified that also opposed growth under the more differentiated conditions. We also identified some drugs that only opposed growth in the improved conditions. It was focused on the latter drugs only as being the target compounds of the present invention.
White Corning 384 well plates (Cat #3570) were coated with 40 ul of […] polyornithine (Sigma, #P-365) at 370C overnight. The next day the plates were washed 5 times with water using a BioTek EL 406 plate washer. The plates were then coated with 40 ul of 1 mg/ml fibronectin (R&D Systems, #1030-Fn) for 2 hours at 370C and then washed 2 times with PBS. Either 15nl or 50nl of either 10 mM library compounds (MicroSource Pharmakon library) or 100% DMSO as negative control or 1 mM Staurosporine (ACROS #328532500) were dispensed with a Labcyte Echo 550 to screen the library at 3u M and 10 μM respectively. U87 cells were seeded in the plates with a WellMate drop dispenser (ThermoFischer) at a density of 3000 cells per well in 50 μl N2 medium and incubated for 20 hours at 37 °C in 5% C02. Cell viability was assayed using Perkin Elmer ATPLite (Cat 6016731) according to vendor's instructions. For the dose dependent verification assay, cells were seeded in N2 medium with or without serum to test the specificity of compound action.
A library of 1,600 FDA-approved compounds was screened at two different concentrations (10 μM and 3 μM) on U-87 cells cultured in FGFJI (FIG. 8).

[1] = 10 μM, second value of the cell

| Compound | ATP assay score (3 μM, 10 μM) (3 μM, first value of the cell) | ATP assay score (3 μM, 10 μM) [1] |
| --- | --- | --- |
| Oc1c(Br)cc(Br)c2cccnc12 [BROXYQUINOLINE, 5,7-dibromoquinolin-8-ol] | −11 | −8 |
| CC[C@@H](C(=O)[C@@H](C)[C@@H](O)[C@H](C)CCc1ccc(C)c(O)c1C(=O)[O-])[C@H]1O[C@](CC)([C@H]2CC[C@](O)(CC)[C@H](C)O2)C[C@@H]1C.[Na+] [LASALOCID Na, sodium 6-[(3R,4S,5S,7R)-7-[(2S,3S,5S)-5-ethyl-5-[(2R,5R,6S)-5-ethyl-5-hydroxy-6-methyloxan-2-yl]-3-methyloxolan-2-yl]-4-hydroxy-3,5-dimethyl-6-oxononyl]-2-hydroxy-3-methylbenzoate] | −10 | −5 |
| Oc1cc(Cl)ccc1Oc1ccc(Cl)cc1Cl [TRICLOSAN, 5-chloro-2-(2,4-dichlorophenoxy)phenol] | −7 | −5 |
| CC(C)(C)CC(C)(C)c1ccc(O)c(Cc2ccc(Cl)cc2Cl)c1 [CLOFOCTOL, 2-[(2,4-dichlorophenyl)methyl]-4-(2,4,4-trimethylpentan-2-yl)phenol] | −11 | −5 |
| Oc1c(I)cc(Cl)c2cccnc12 [CLIOQUINOL, 5-chloro-7-iodoquinolin-8-ol] | −11 | −7 |
| Oc1c(Cl)cc(Cl)cc1Sc1cc(Cl)cc(Cl)c1O.[Na+] [BITHIONATE Na, sodium 2,4-dichloro-6-(3,5-dichloro-2-hydroxyphenyl)sulfanylphenol] | −11 | −10 |
